Reference: patent US20210369710A1, “MODULATORS OF MYC FAMILY PROTO-ONCOGENE PROTEIN” (Nalo Therapeutics, priority 2019, published 2021)

How the values were obtained:
MycN Protein = biological target: T1, MycN Protein (Homo sapiens, UniProt P04198); assay: Degradation of MycN protein, Western blot band density in cells; type: cell-based; conditions: HL-60 or SKNBE2 cells; 6 uL of compound (1 mM) added to 3 mL cells; 6 hours; Western blot band density (ImageJ)
T1 construct: endogenous in cells; host or cells: HL-60 or SKNBE2
T1 sequence (P04198 1-464): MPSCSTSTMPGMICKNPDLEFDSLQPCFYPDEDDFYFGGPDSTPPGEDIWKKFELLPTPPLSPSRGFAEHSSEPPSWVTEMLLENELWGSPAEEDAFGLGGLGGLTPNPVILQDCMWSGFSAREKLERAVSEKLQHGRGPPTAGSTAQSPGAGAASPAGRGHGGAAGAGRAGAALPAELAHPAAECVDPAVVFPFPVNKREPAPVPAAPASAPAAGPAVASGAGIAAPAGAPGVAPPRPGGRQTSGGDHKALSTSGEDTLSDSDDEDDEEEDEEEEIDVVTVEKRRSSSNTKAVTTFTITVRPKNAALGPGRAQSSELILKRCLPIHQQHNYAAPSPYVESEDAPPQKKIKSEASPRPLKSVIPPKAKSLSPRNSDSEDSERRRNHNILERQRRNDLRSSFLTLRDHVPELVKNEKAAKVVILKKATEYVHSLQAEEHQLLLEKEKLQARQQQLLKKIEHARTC
Protocol: (§1) In a T150 flask was plated either 2×10^6 of HL-60 (human leukemia cell line) or SKNBE2 (neuroblastoma cell line) cells in a total of 30 mL containing Roswell Park Memorial Institute (RPMI) 1640 Medium (Thermo Fisher, Cat. #11875-085), 10% Fetal Bovine Serum (FBS, Thermo Fisher: Cat. #10437-028), 1% Penicillin/streptomycin (Thermo Fisher: Cat. #10378016), and 1% Amophotericin B (Thermo Fisher, Cat. #15290026). The cells were split every 72 hours by reseeding the HL-60 or SKNBE2 cells, and the passage number was noted. It is noteworthy that cell cultures that were above 40 passages were not used, and most experiments were done with cells of less than 30 passages.
(§2) In a 6-well cell culture plate, a total of 3 mL of either 1×10^6 cells/mL of HL-60 or SKNBE2 cells were seeded, resulting in a total of 3×10^6 cells per well. To each well containing 3 mL of either HL-60 or SKNBE2 cell line was added 6 uL of MycN modulating compound (1 mM) and the resulting plate was shaken from left to right, and not swirled. After 6 hours, the cells were placed in a 15 mL falcon tube and spun at 500 Gs at 4° C. in a swinging bucket centrifuge. The medium was then carefully removed without disturbing the pellet. The pellet was then washed with 3 mLs of chilled phosphate buffered saline (PBS) and subjected to the spin cycle. PBS was then removed and the pellet was lysed in 200 uL of radioimmunoprecipitation (RIPA) lysis buffer (Thermo Fisher: Cat. #899000) that is supplemented with protease and phosphatase inhibitors (Thermo Fisher: Cat. #A32959). The cell lysate was then subjected to spinning in a centrifuge for 10 minutes at 13000G at 4° C. The supernatant was then carefully transferred to a fresh eppendorf tube without disturbing the pellet (˜180 uL). The protein concentration of the cell lysate was then determined by using a bicinchoninic acid (BCA assay) according to manufacturer's protocol (Thermo Fisher: Cat. #23227).
(§3) Cell lysate, approximately 25 ug-30 ug, was loaded per well in a 4-20% polyacrylamide gel (Biorad. Cat. #5671094). After running the dye front off of the gel, the gel was transferred to a nitrocellulose membrane (Biorad: Cat. #1704159) using the transblot turbo system (Biorad: Cat. #1704150) according to manufacturer's protocol. After transferring for 30 minutes, the membrane was blocked with 5% BSA for 1 hour at room temperature. The BSA was then washed off and the primary antibody of choice (1:500) was added, and the membrane was incubated with the primary antibody at 4° C. for overnight. The next morning, the primary antibody was removed and the membrane was washed with 1×-TBST for 10 minutes and repeated three more times. Following the last wash, a secondary antibody (Molecular Devices. Cat. #R8209 or R8208) was added at 1:5000 dilution and incubated for 1 hour at room temperature. Following the incubation with the secondary antibody, the membrane was washed with 1×-TBST for 10 minutes and repeated three more times. Following the last wash, the membrane was washed with de-ionized water twice and dried for at least two hours. Once the membrane is completely dry, the Molecular Devices Spectra Max western system was used to observe the bands. The western image was saved and the band density was measured with ImageJ software.

MycC Protein = biological target: T2, MycC Protein (Homo sapiens, UniProt P01106); assay: Degradation of MycC protein, Western blot band density in cells; type: cell-based; conditions: HL-60 or SKNBE2 cells; 6 uL of compound (1 mM) added to 3 mL cells; 6 hours; Western blot band density (ImageJ)
T2 construct: endogenous in cells; host or cells: HL-60 or SKNBE2
T2 sequence (P01106 whole entry): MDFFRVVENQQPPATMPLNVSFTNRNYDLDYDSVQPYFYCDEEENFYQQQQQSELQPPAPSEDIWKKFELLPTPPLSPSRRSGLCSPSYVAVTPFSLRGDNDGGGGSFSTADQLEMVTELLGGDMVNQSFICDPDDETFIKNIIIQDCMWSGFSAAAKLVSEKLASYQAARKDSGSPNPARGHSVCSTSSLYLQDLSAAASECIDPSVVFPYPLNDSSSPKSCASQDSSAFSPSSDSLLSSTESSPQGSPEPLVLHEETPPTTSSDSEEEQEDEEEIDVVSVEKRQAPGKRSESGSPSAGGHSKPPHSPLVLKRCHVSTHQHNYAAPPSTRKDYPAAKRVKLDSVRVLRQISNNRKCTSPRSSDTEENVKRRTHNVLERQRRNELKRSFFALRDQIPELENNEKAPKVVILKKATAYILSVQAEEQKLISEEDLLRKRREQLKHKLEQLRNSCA
Protocol: as §1, §2, §3

| Structure (SMILES) | Dmax at 2 µM (MycN Protein) [%] | Dmax at 2 µM (MycC Protein) [%] |
| --- | --- | --- |
| O=C(NC1CCC2(CC1)COC2)N[C@H]1CC[C@H](Nc2nccc(Nc3cc(C4CCCC4)[nH]n3)n2)CC1 [Compound 49, 1-((1R,4R)-4-((4-((5-cyclopentyl-1H-pyrazol-3-yl)amino)pyrimidin-2-yl)amino)cyclohexyl)-3-(2-oxaspiro[3.5]nonan-7-yl)urea] | < 20 | < 20 |
| N#Cc1cccc([C@H]2C[C@H](NC(=O)N[C@H]3CC[C@H](Nc4nccc(Nc5cc(C6CCOC6)[nH]n5)n4)CC3)C2)c1 (some centres unmarked) [Compound 53] | < 20 | < 20 |
| CS(=O)(=O)[C@H]1C[C@H](NC(=O)N[C@H]2CC[C@H](Nc3nccc(Nc4cc(C5CCCC5)[nH]n4)n3)CC2)C1 [Compound 57] | < 20 | 50 to 79 |
| O=C(NC1CCC(Nc2nccc(Nc3cc(C4CCCC4)[nH]n3)n2)CC1)NC1CCCN(C2CC2)C1 [Compound 60, 1-((1R,4R)-4-((4-((5-cyclopentyl-1H-pyrazol-3-yl)amino)pyrimidin-2-yl)amino)cyclohexyl)-3-(1-cyclopropylpiperidine-3-yl)urea] | < 20 | 50 to 79 |
| O=C(NC1CCC(Nc2nccc(Nc3cc(C4CCCC4)[nH]n3)n2)CC1)NC1CC2(C1)CN(C1CC1)C2 [Compound 77, 1-((1R,4R)-4-((4-((5-cyclopentyl-1H-pyrazol-3-yl)amino)pyrimidin-2-yl)amino)cyclohexyl)-3-(2-cyclopropyl-2-azaspiro[3.3]heptan-6-yl)urea] | < 20 | 20 to 49 |

Second part, the compound after the results:

| Dmax at 2 µM (MycN Protein) [%] | Dmax at 2 µM (MycC Protein) [%] | Structure (SMILES) |
| --- | --- | --- |
| 80 to 100 | 80 to 100 | O=C(N[C@H]1CC[C@H](Nc2nccc(Nc3cc(C4CCCC4)[nH]n3)n2)CC1)N[C@H]1C[C@H](c2ccccc2)C1 [Compound 52, 1-((1R,4R)-4-((4-((5-cyclopentyl-1H-pyrazol-3-yl)amino)pyrimidin-2-yl)amino)cyclohexyl)-3-(3-phenylcyclobutyl)urea] |
| < 20 | 20 to 49 | CS(=O)(=O)N1CC(NC(=O)N[C@H]2CC[C@H](Nc3nccc(Nc4cc(C5CCCC5)[nH]n4)n3)CC2)C1 [Compound 56] |
| 50 to 79 | 20 to 49 | O=C(NC1CCC(Nc2nccc(Nc3cc(C4CCCC4)[nH]n3)n2)CC1)NC1CCN(C2CC2)CC1 (centres unmarked) [Compound 63] |
| < 20 | 20 to 49 | O=C(NC1CCN(CCO)CC1)N[C@H]1CC[C@H](Nc2nccc(Nc3cc(C4CCCC4)[nH]n3)n2)CC1 [Compound 70, 1-((1R,4R)-4-((4-((5-cyclopentyl-1H-pyrazol-3-yl)amino)pyrimidin-2-yl)amino)cyclohexyl)-3-(1-(2-hydroxyethyl)piperidin-4-yl)urea] |
| < 20 | 20 to 49 | O=C(NC1CCN(Cc2ccccn2)CC1)N[C@H]1CC[C@H](Nc2nccc(Nc3cc(C4CCCC4)[nH]n3)n2)CC1 [Compound 72, 1-((1R,4R)-4-((4-((5-cyclopentyl-1H-pyrazol-3-yl)amino)pyrimidin-2-yl)amino)cyclohexyl)-3-(1-(pyridin-2-ylmethyl)piperidin-4-yl)urea] |
| < 20 | < 20 | Cc1cc(Nc2ccnc(N[C@H]3CC[C@H](NC(=O)NC4CCN(Cc5ccccn5)CC4)CC3)n2)n[nH]1 [Compound 73, 1-((1R,4R)-4-((4-((5-methyl-1H-pyrazol-3-yl)amino)pyrimidin-2-yl)amino)cyclohexyl)-3-(1-(pyridin-2-ylmethyl)piperidin-4-yl)urea] |
| 20 to 49 | < 20 | O=C(NC1CCN(Cc2ccccn2)CC1)N[C@H]1CC[C@H](Nc2nccc(Nc3cc(C4CCOC4)[nH]n3)n2)CC1 (stereo partly drawn) [Compound 74, 1-(1-(pyridin-2-ylmethyl)piperidin-4-yl)-3-((1R,4R)-4-((4-((5-(tetrahydrofuran-3-yl)-1H-pyrazol-3-yl)amino)pyrimidin-2-yl)amino)cyclohexyl)urea] |
| < 20 | 20 to 49 | O=C(NC1CCN(Cc2ncccn2)CC1)N[C@H]1CC[C@H](Nc2nccc(Nc3cc(C4CCCC4)[nH]n3)n2)CC1 [Compound 75] |
